According to patent US10703698B2, “Compounds which activate estrogen receptors and compositions and methods of using the same” (The Board of Trustees of the University of Illinois, priority 2016, dated 2020):

Legend:
LRRC54 gene = test: LRRC54 (non-genomic gene) mRNA expression, qPCR; details: MCF-7 cells; 1 μM PaPE or 10 nM E2 for 4 h where stated; versus vehicle, E2 or compound 2
Excerpt: (§2) Quantitation of signal intensities is shown in panel at the right.

[1] = molecular target: T1, purified full-length human ERα (Homo sapiens, UniProt P03372); test: competitive radiometric binding assay, relative binding affinity (RBA); details: relative to estradiol = 100
T1 construct: using purified full-length human ERα and ERβ
T1 sequence (P03372 1-595): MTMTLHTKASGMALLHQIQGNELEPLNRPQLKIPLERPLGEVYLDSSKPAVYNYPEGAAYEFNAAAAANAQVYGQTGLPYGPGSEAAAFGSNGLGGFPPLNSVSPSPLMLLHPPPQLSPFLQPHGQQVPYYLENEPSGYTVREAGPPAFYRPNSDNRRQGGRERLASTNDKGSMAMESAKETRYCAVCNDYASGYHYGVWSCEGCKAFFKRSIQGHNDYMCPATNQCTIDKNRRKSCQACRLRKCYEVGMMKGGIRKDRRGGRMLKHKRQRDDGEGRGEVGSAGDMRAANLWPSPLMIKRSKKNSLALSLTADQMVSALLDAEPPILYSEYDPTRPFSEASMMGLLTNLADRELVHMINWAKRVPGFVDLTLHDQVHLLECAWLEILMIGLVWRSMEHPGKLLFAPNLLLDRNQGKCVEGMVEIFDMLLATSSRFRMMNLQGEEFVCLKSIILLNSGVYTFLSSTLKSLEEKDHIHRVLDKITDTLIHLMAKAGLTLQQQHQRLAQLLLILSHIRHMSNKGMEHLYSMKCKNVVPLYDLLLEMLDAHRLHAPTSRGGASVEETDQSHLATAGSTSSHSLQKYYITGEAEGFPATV
Excerpt: (§1) FIG. 1. […] […]

[2] = molecular target: T2, purified full-length human ERβ (Homo sapiens, UniProt Q92731); test: as above; details: relative to estradiol = 100
T2 construct: using purified full-length human ERα and ERβ
Excerpt: as §1

PgR gene = test: PgR (genomic gene) mRNA expression, qPCR; details: MCF-7 cells; 1 μM PaPE or 10 nM E2 for 4 h where stated; versus vehicle or E2
Excerpt: as §2

T2 sequence (Q92731 whole entry): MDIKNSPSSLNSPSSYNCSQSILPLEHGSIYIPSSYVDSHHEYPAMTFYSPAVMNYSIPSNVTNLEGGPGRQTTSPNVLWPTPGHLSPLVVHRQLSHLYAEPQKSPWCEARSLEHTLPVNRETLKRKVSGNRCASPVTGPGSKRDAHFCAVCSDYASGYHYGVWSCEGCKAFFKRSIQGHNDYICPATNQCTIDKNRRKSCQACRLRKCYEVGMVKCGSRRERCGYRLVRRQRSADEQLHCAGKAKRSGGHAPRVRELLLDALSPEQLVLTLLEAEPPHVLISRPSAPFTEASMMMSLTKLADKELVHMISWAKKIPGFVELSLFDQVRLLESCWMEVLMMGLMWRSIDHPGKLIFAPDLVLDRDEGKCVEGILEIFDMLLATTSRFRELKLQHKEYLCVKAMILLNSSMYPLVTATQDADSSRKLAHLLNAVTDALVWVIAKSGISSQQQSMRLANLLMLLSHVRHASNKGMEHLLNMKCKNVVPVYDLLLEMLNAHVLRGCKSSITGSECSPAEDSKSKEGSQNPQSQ

## Cc1cc(-c2ccc3c(c2)CC[C@@H]3O)cc(C)c1O [Compound 3, S-5-(4-hydroxy-3,5-dimethylphenyl)-2,3-dihydro-1H-inden-1-ol]
LRRC54 gene
  LRRC54 (non-genomic gene) mRNA expression, in words: equivalent activities

## Cc1cc(-c2ccc(CO)cc2C(F)(F)F)cc(C)c1O [Compound 28]
[1]
  ERα RBA (relative binding affinity): 0.008 ± 0.002
[2]
  ERβ RBA (relative binding affinity): 0.013 ± 0.002

## Cc1cc([C@H]2CC[C@@]3(C)[C@H](CC[C@@H]3O)C2)cc(C)c1O [Compound 43, (1S,3aR,5S,7aS)-5-(4-hydroxy-3,5-dimethylphenyl)-7a-methyloctahydro-1H-inden-1-ol]
[1]
  ERα RBA (relative binding affinity): <0.001
[2]
  ERβ RBA (relative binding affinity): 0.001

## Cc1cc(-c2cccc(CCO)c2)cc(C)c1O [Compound 44, 3′-(2-hydroxyethyl)-3,5-dimethyl-[1,1′-biphenyl]-4-ol]
LRRC54 gene
  LRRC54 (non-genomic gene) mRNA expression, in words: preferentially stimulate LRRC54 better than E2
[1]
  ERα RBA (relative binding affinity): 0.001
[2]
  ERβ RBA (relative binding affinity): 0.001

## Cc1cc(-c2ccc(O)c(CCO)c2)cc(C)c1O [Compound 69, 3′-(2-hydroxyethyl)-3,5-dimethyl-[1,1′-biphenyl]-4,4′-diol]
LRRC54 gene
  LRRC54 (non-genomic gene) mRNA expression, in words: does not improve the non-genomic LRRC54 gene response

## Cc1cc(-c2ccc(CO)c(F)c2)cc(C)c1O [Compound 25, 3′-fluoro-4′-(hydroxvmethyl)-3,5-dimethyl-[1,1′-biphenyl]-4-ol]
[1]
  ERα RBA (relative binding affinity): 0.003 ± 0
[2]
  ERβ RBA (relative binding affinity): 0.009 ± 0

## Cc1cc(-c2ccc3c(c2)CCC3=O)cc(C)c1O [Compound 6, 5-(4-hydroxy-3,5-dimethylphenyl)-2,3-dihydro-1H-inden-1-one]
LRRC54 gene
  LRRC54 (non-genomic gene) mRNA expression, in words: non-genomic activity is lost

## Cc1cc(-c2ccc3c(c2)CC[C@H]3O)cc(C)c1O [Compound 4, R-5-(4-hydroxy-3,5-dimethylphenyl)-2,3-dihydro-1H-inden-1-ol]
LRRC54 gene
  LRRC54 (non-genomic gene) mRNA expression, in words: less non-genomic gene activity

## Cc1cc(-c2ccc3cc(O)ccc3c2)cc(C)c1O [Compound 53]
PgR gene
  PgR (genomic gene) mRNA expression, in words: gene expression pattern equivalent to that of estradiol (E2)
LRRC54 gene
  LRRC54 (non-genomic gene) mRNA expression, in words: gene expression pattern equivalent to that of estradiol (E2)

## Cc1cc(C(=C2CCCCC2)c2ccc(Br)cc2)cc(C)c1O [Compound 67]
PgR gene
  PgR (genomic gene) mRNA expression, in words: stimulate PgR gene selectively

## Cc1cc(-c2ccc3c(c2)C=CC3=O)cc(C)c1O [Compound 18]
PgR gene
  PgR (genomic gene) mRNA expression, in words: increases expression of both the non-genomic and genomic genes
LRRC54 gene
  LRRC54 (non-genomic gene) mRNA expression, in words: increases expression of both the non-genomic and genomic genes

## Cc1cc(-c2ccc3c(c2)CC(F)C3O)cc(C)c1O (stereo not shown) [Compound 50, 2-fluoro-5-(4-hydroxy-3,5-dimethylphenyl)-2,3-dihydro-1H-inden-1-ol]
PgR gene
  PgR (genomic gene) mRNA expression, in words: stimulate both non-genomic LRRC54 and genomic PgR gene expression close to the level that of E2
LRRC54 gene
  LRRC54 (non-genomic gene) mRNA expression, in words: stimulate both non-genomic LRRC54 and genomic PgR gene expression close to the level that of E2

## COC1CCc2cc(-c3cc(C)c(O)c(C)c3)ccc21 (stereo not shown) [Compound 22, 4-(1-methoxy-2,3-dihydro-1H-inden-5-yl)-2,6-dimethylphenol]
PgR gene
  PgR (genomic gene) mRNA expression, in words: stimulation of both genomic and nongenomic gene expression is lost
LRRC54 gene
  LRRC54 (non-genomic gene) mRNA expression, in words: stimulation of both genomic and nongenomic gene expression is lost

## COCc1cc(-c2ccc3c(c2)CCC3O)cc(C)c1O (stereo not shown) [Compound 54, 5-(4-hydroxy-3-methyl-5-methoxymethylphenyl)-2,3-dihydro-1H-inden-1-ol]
PgR gene
  PgR (genomic gene) mRNA expression, in words: little expression of both genes
LRRC54 gene
  LRRC54 (non-genomic gene) mRNA expression, in words: little expression of both genes

## Cc1cc(-c2ccc(CCCO)cc2)cc(C)c1O [Compound 48, 4′-(3-hydroxypropyl)-3,5-dimethyl-[1,1′-biphenyl]-4-ol]
PgR gene
  PgR (genomic gene) mRNA expression, in words: stimulate expression of genomic PgR genes well

## Cc1cc(-c2cccc(CC(=O)O)c2)cc(C)c1O [Compound 49]
PgR gene
  PgR (genomic gene) mRNA expression, in words: behaves like vehicle
LRRC54 gene
  LRRC54 (non-genomic gene) mRNA expression, in words: behaves like vehicle

## OCc1cc(-c2ccc3c(c2)CCC3O)cc(CO)c1O (stereo not shown) [Compound 58, 5-(4-hydroxy-3,5-(dihydroxymethyl)phenyl)-2,3-dihydro-1H-inden-1-ol]
LRRC54 gene
  LRRC54 (non-genomic gene) mRNA expression, in words: increases the expression of the non-genomic LRRC54 gene

## Cc1cc(-c2ccc(CCBr)cc2)cc(C)c1O [Compound 46]
LRRC54 gene
  LRRC54 (non-genomic gene) mRNA expression, in words: preferentially stimulate LRRC54 better than E2

## COC1CC(=O)c2ccc(-c3cc(C)c(O)c(C)c3)cc21 (stereo not shown) [Compound 29]
PgR gene
  PgR (genomic gene) mRNA expression, in words: did not activate PgR above that of vehicle (veh.)

## Cc1cc(-c2cc(C)c(O)c(CO)c2)cc(C)c1O [Compound 68, 3-(Hydroxymethyl)-3′,5,5′-trimethyl-[1,1′-biphenyl]-4,4′-diol]
LRRC54 gene
  LRRC54 (non-genomic gene) mRNA expression, in words: suppresses LRRC54 gene expression compared to that of the parent compound 59

## Cc1cc(-c2cc(C)c(O)c(C)c2)cc(C)c1O [Compound 65, 4,4′-Dihydroxy-3,3′,5,5′-tetramethylbiphenyl]
PgR gene
  PgR (genomic gene) mRNA expression, in words: equivalent to that of vehicle (Veh.)
LRRC54 gene
  LRRC54 (non-genomic gene) mRNA expression, in words: greatly suppresses LRRC54 gene expression

## Cc1cc(-c2ccc3c(c2)CC=C3)cc(C)c1O [Compound 14, 4-(1H-inden-6-yl)-2,6-dimethylphenol]
PgR gene
  PgR (genomic gene) mRNA expression, in words: strongly stimulate the genomic gene PgR

## Cc1cc(-c2ccc3c(c2)CC(Br)(Br)C3O)cc(C)c1O (stereo not shown) [Compound 52, 2,2-dibromo-5-(4-hydroxy-3,5-dimethylphenyl)-2,3-dihydro-1H-inden-1-ol]
PgR gene
  PgR (genomic gene) mRNA expression, in words: little expression of both genes
LRRC54 gene
  LRRC54 (non-genomic gene) mRNA expression, in words: little expression of both genes

## Cc1cc(-c2cccc(CCCO)c2)cc(C)c1O [Compound 47, 3′-(3-hydroxypropyl)-3,5-dimethyl-[1,1′-biphenyl]-4-ol]
PgR gene
  PgR (genomic gene) mRNA expression, in words: stimulate expression of genomic PgR genes well
LRRC54 gene
  LRRC54 (non-genomic gene) mRNA expression, in words: good stimulation of the non-genomic LRRC54

## Cc1cc(C(=C2C3CC4CC(C3)CC2C4)c2ccc(Br)cc2)cc(C)c1O [Compound 66]
PgR gene
  PgR (genomic gene) mRNA expression, in words: stimulate PgR gene selectively

## OCc1cc(-c2ccccc2)ccc1O [Compound 61, 4-Hydroxy-3-hydroxymethyl-biphenyl]
PgR gene
  PgR (genomic gene) mRNA expression, in words: not at all
LRRC54 gene
  LRRC54 (non-genomic gene) mRNA expression, in words: a little better than vehicle (Veh.)

## CC(O)c1ccc(-c2ccccc2)cc1 (stereo not shown) [Compound 31]
PgR gene
  PgR (genomic gene) mRNA expression, in words: both activities are lost
LRRC54 gene
  LRRC54 (non-genomic gene) mRNA expression, in words: both activities are lost

## Cc1cc(-c2ccc3c(c2)CCC3)cc(C)c1O [Compound 13, 4-(2,3-dihydro-1H-inden-5-yl)-2 6-dimethylphenol]
PgR gene
  PgR (genomic gene) mRNA expression, in words: strongly stimulate the genomic gene PgR
LRRC54 gene
  LRRC54 (non-genomic gene) mRNA expression, in words: some non-genomic activity

## Cc1cc(-c2ccc3c(c2)CC(Br)C3O)cc(C)c1O (stereo not shown) [Compound 51, 2-bromo-5-(4-hydroxy-3,5-dimethylphenyl)-2,3-dihydro-1H-inden-1-ol]
PgR gene
  PgR (genomic gene) mRNA expression, in words: stimulate both non-genomic LRRC54 and genomic PgR gene expression close to the level that of E2
LRRC54 gene
  LRRC54 (non-genomic gene) mRNA expression, in words: stimulate both non-genomic LRRC54 and genomic PgR gene expression close to the level that of E2

## Cc1cc(-c2ccc(CO)cc2)cc(C)c1O [Compound 23]
[1]
  ERα RBA (relative binding affinity): 0.002 ± 0.001
[2]
  ERβ RBA (relative binding affinity): 0.002 ± 0.001

## COc1c(C)cc(-c2ccc3c(c2)CCC3O)cc1C (stereo not shown) [Compound 5, 5-(4-methoxy-3,5-dimethylphenyl)-2,3-dihydro-1H-inden-1-ol]
LRRC54 gene
  LRRC54 (non-genomic gene) mRNA expression, in words: marked loss of this non-genomic activity

## C#CC1(O)CCc2cc(-c3cc(C)c(O)c(C)c3)ccc21 (stereo not shown) [Compound 19, 1-ethynyl-5-(4-hydroxy-3,5-dimethylphenyl)-2,3-dihydro-1H-inden-1-ol]
[1]
  ERα RBA (relative binding affinity): 0.004 ± 0.001
[2]
  ERβ RBA (relative binding affinity): <0.001
